Earlier results in patent US6399797B1, “Vitamin D analogues” (Leo Pharmaceutical Products Ltd. A/S (Løvens kemiske Fabrik …, priority 1997, dated 2002).

Assays:
[1] = tested on: experimental animal models; conditions: systemically administered
[2] = tested on: transplanted islets in diabetic NOD mice; conditions: alone or in combination with cyclosporin A
[3] = tested on: cardiac and small bowel grafts; conditions: rats

SMILES | immunosuppressive activities in vivo [1] | prevention of autoimmune destruction of transplanted islets [2] | survival of cardiac and small bowel grafts [3]
C=C1/C(=C\C=C2/CCC[C@]3(C)[C@@H]([C@@H](C)OCCCC(O)(CC)CC)CC[C@@H]23)C[C@@H](O)C[C@@H]1O [KH 1060] | have shown immunosuppressive activities in vivo | prevent autoimmune destruction of transplanted islets | 
C=C1/C(=C\C=C2/CCC[C@]3(C)[C@@H]([C@H](C)CCCC(C)(C)O)CC[C@@H]23)C[C@@H](O)C[C@@H]1O [MC 1288] | have shown immunosuppressive activities in vivo |  | able to prolong survival of cardiac and small bowel grafts
